Consider nine compounds from patent US20260092071A1, “COMPOUNDS AND COMPOSITIONS AS SMARCA2/4 DEGRADERS AND USES THEREOF” (REGENTS OF THE UNIVERSITY OF MICHIGAN, priority 2022, published 2026).

Common to all, as to format: cell-based
For experiment [1], the target named is T1, SMARCA4 (Homo sapiens, UniProt P51532). Briefly: HiBiT assay for protein degradation, Hela SMARCA4-HiBiT cells (A series). More on the design: fuse HiBiT to the carboxy terminus of SMARCA2 (Promega CS302365) or SMARCA4 (Promega CS3023225); host or cells: HeLa (CRISPR/Cas9 HiBiT knock-in). Particulars: Hela SMARCA4-HiBiT cells, 24 hours treatment; for DC50: read-out: SMARC A4 Hela HiBit DC50; for Dmax: read-out: SMARC A4 Hela HiBit Dmax. As for the experimental part: (§1) Hela cells were genetically modified via CRISPR/Cas9 to fuse HiBiT to the carboxy terminus of SMARCA2 (Promega CS302365) or SMARCA4 (Promega CS3023225). Cells were cultured in DMEM containing 10% FBS and 1% (Vol:Vol) penicillin-streptomycin. […] At the end of experiment, levels of SMARCA2 or SMARCA4 expression were assessed with Nano-Glo® HiBiT Lytic Detection Assay (Promega N3050). IC50 was obtained using the GraphPad Prism data analysis software.
Background: The HiBiT peptide binds its large partner to form an active luciferase.

Experiment [2] addresses T2, SMARCA2 (Homo sapiens, UniProt P51531). Briefly: HiBiT assay for protein degradation, Hela SMARCA2-HiBiT cells (A series).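 For SMARC A2 Hela HiBit Dmax (%): 24 h compound treatment.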 Set-up: Hela cells were genetically modified via CRISPR/Cas9 to fuse HiBiT to the carboxy terminus of SMARCA2; host or cells: HeLa (CRISPR/Cas9 HiBiT knock-in). Particulars: Hela SMARCA2-HiBiT cells, 24 hours treatment; for DC50: read-out: SMARC A2 Hela HiBit DC50; for Dmax: read-out: SMARC A2 Hela HiBit Dmax (%). Here is the method:
as §1

The target of experiment [3] is T2, SMARCA2. Briefly: HiBit assay in engineered HT1080 CRISPR knock-in cell, 6 hrs (B series), SMARCA2. The note with it: 6 hrs incubation; for DC50: read-out: SMARC A2 HT1080 HiBit DC50; for Dmax: HT-1080, HT1080 CRISPR knock-in cells, read-out: SMARC A2 HT1080 HiBit Dmax (%). Put shortly: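 Using a 6 hr treatment window at 37° C and 5% CO2, tagged HT1080 knock-in cells were exposed to test compounds with DMSO vehicle held at 0.1%. Signal came from lytic LgBiT/substrate reagent added after incubation, with control wells lacking LgBiT, and was read as luminescence.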

Experiment [4] deals with T1, SMARCA4. Briefly: HiBit assay in engineered HT1080 CRISPR knock-in cell, 6 hrs (B series), SMARCA4. Particulars: 6 hrs incubation; for DC50: read-out: SMARC A4 HT1080 HiBit DC50; for Dmax: HT-1080, HT1080 CRISPR knock-in cells, read-out: SMARC A4 HT1080 HiBit Dmax(%). An outline of the steps: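 Protein abundance is measured in HiBiT-tagged HT1080 CRISPR knock-in cells after a 6 hr compound treatment (0.1% DMSO) by lytic Nano-Glo HiBiT luminescence.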

A value given as a limit tells only on which side of the number the result lay.

T1 sequence (P51532 whole entry): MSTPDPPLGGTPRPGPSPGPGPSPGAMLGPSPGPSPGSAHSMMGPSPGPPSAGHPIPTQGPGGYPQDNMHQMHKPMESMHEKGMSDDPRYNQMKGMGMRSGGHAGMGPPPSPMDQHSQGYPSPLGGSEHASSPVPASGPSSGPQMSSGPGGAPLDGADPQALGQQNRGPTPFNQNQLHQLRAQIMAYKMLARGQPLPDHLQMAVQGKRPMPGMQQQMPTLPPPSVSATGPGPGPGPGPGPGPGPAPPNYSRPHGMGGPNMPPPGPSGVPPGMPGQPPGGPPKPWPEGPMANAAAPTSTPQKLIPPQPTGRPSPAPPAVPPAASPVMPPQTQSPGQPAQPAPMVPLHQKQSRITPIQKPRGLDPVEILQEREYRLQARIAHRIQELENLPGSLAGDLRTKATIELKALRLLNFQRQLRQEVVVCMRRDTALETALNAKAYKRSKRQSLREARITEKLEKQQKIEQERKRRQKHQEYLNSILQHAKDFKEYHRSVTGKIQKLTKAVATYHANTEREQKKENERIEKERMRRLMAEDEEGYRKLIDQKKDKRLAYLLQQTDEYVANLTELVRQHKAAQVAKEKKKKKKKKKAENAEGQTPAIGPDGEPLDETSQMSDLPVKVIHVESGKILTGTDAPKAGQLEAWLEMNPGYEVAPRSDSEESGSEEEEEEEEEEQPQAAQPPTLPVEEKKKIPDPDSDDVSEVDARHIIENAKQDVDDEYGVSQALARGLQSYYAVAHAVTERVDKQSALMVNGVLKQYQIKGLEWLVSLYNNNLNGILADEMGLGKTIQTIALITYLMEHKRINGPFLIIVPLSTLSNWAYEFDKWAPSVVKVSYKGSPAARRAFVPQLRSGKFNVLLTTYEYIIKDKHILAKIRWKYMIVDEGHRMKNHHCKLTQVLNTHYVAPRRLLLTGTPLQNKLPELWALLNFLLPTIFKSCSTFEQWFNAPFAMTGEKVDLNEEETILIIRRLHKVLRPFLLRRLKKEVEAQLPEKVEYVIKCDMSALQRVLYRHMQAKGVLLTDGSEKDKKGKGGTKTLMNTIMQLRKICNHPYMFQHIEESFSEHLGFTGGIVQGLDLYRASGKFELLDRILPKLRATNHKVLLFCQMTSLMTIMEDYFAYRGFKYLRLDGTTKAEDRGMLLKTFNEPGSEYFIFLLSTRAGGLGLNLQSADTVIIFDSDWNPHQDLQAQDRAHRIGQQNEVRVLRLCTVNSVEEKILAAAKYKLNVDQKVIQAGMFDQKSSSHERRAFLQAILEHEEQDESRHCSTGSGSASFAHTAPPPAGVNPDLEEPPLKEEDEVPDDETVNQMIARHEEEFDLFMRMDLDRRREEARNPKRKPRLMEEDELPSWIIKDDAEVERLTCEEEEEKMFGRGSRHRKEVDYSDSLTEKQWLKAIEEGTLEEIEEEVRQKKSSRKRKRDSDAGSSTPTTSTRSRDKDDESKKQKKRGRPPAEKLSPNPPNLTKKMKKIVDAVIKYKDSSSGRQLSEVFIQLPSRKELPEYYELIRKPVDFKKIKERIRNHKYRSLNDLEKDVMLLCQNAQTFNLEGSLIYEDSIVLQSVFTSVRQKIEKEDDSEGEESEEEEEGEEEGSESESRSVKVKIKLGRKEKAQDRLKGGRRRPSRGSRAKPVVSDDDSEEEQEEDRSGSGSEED
T2 sequence (P51531 whole entry): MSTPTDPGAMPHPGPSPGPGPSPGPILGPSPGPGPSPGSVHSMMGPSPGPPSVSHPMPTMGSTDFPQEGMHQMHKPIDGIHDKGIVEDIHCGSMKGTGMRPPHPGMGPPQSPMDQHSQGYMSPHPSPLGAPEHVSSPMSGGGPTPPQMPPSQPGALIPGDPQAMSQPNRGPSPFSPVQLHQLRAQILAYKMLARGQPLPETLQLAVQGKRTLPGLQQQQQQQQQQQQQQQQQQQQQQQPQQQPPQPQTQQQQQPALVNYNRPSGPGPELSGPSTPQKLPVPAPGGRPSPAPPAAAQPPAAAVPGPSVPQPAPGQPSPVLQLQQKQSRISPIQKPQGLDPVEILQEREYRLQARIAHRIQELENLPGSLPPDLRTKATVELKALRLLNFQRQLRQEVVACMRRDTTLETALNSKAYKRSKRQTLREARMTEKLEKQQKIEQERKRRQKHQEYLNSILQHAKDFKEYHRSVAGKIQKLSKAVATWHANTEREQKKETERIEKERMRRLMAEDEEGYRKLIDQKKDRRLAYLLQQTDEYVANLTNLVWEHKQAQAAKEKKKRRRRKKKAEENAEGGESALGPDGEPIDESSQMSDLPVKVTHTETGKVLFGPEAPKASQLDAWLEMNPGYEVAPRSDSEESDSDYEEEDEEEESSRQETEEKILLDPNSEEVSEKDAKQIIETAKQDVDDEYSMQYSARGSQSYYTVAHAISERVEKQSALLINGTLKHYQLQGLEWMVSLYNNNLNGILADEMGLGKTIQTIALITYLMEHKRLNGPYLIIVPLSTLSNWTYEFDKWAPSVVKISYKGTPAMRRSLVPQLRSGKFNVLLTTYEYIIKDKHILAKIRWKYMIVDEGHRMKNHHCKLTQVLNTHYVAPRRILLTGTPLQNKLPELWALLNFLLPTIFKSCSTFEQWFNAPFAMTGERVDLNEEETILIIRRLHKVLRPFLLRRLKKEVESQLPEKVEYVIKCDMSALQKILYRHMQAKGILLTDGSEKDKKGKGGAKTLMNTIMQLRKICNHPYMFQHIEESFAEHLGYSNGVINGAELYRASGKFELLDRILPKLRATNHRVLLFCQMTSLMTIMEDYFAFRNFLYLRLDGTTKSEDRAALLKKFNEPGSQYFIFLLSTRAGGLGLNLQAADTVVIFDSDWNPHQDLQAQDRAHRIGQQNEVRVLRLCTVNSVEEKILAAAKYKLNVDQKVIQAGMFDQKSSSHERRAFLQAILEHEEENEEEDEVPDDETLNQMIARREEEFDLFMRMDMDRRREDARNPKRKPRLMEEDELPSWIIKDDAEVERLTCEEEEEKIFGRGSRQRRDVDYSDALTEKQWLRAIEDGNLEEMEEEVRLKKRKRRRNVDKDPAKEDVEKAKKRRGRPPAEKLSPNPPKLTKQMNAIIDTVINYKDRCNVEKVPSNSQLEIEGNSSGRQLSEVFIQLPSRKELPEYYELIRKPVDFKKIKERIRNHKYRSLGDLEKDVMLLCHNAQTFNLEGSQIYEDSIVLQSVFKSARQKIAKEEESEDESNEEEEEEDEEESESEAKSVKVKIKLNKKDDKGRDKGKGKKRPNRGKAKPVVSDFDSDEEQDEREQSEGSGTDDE

As to `CC(C)(C)[C@@H](C(=O)N1C[C@H](O)C[C@H]1C(=O)N[C@@H](CN1CCOCC1)c1ccc(-c2ccncc2)cc1)n1cc([C@H]2CC[C@H](CN3CCC(c4ccc5c(c4)-n4c(nc(=O)c6c(Cl)cccc64)C54CCCCC4)CC3)CC2)nn1` [Compound A172, (2S,4R)-1-((S)-2-(4-((1r,4S)-4-((4-(4′-chloro-5′-oxo-5′H-spiro[cyclohexane-1,7′-indolo[1,2-a]quinazolin]-10′-yl)piperidin-1-yl)methyl)cyclohexyl)-1H-1,2,3-triazol-1-yl)-3,3-dimethylbutanoyl)-4-hydroxy-N—((R)-2-morpholino-1-(4-(pyridin-4-yl)phenyl)ethyl)pyrrolidine-2-carboxamide], the DC50 at SMARCA4 [1] was > 1000 nM; on SMARCA2 [2] it was < 10 nM. Also, the results for the Dmax at SMARCA4 [1] and at SMARCA2 [2] were < 50% and > 90%, respectively.
The like results for `CC1(C)c2ccc(C3CCN(C[C@H]4CC[C@H](c5cn([C@H](C(=O)N6C[C@H](O)C[C@H]6C(=O)N[C@@H](CN6CCOCC6)c6ccc(-c7scnc7C(=O)O)cc6)C6CCOCC6)nn5)CC4)CC3)cc2-n2c1nc(=O)c1c(Cl)cccc12` [Compound A133, 5-(4-((R)-1-((2S,4R)-1-((S)-2-(4-((1r,4S)-4-((4-(4-chloro-7,7-dimethyl-5-oxo-5,7-dihydroindolo[1,2-a]quinazolin-10-yl)piperidin-1-yl)methyl)cyclohexyl)-1H-1,2,3-triazol-1-yl)-2-(tetrahydro-2H-pyran-4-yl)acetyl)-4-hydroxypyrrolidine-2-carboxamido)-2-morpholinoethyl)phenyl)thiazole-4-carboxylic acid] were, in that order, > 1000 nM, 100 to 1000 nM, < 50% and 70 to 90%.
`C[C@H](NC(=O)[C@@H]1C[C@@H](O)CN1C(=O)[C@@H](NC(=O)[C@H]1CC[C@H](CN2CCC(c3ccc4c(c3)C(C)(C)c3nc(=O)c5c(Cl)cccc5n3-4)CC2)CC1)C(C)(C)C)c1ccc(-c2ncnn2C)cc1` [Compound B88, (2S,4R)-1-((S)-2-((11,4S)-4-((4-(4-chloro-7,7-dimethyl-5-oxo-5,7-dihydroindolo[1,2-a]quinazolin-9-yl)piperidin-1-yl)methyl)cyclohexane-1-carboxamido)-3,3-dimethylbutanoyl)-4-hydroxy-N-((S)-1-(4-(1-methyl-1H-1,2,4-triazol-5-yl)phenyl)ethyl)pyrrolidine-2-carboxamide]: the DC50 on SMARCA2 [3] (HT1080 CRISPR knock-in cells) and at SMARCA4 [4] (HT1080 CRISPR knock-in cells) was > 1000 nM each time. In addition, the Dmax at SMARCA2 [3] and on SMARCA4 [4] was < 50% in each case.
As for `Cc1ncsc1-c1ccc([C@H](CN2CCOCC2)NC(=O)[C@@H]2C[C@@H](O)CN2C(=O)[C@@H](c2cc(N3CCC(c4ccc5c(c4)C(C)(C)c4nc(=O)c6c(Cl)cccc6n4-5)CC3)no2)C(C)C)cc1` [Compound B110, (2S,4R)-1-(2-(3-(4-(4-chloro-7,7-dimethyl-5-oxo-5,7-dihydroindolo[1,2-a]quinazolin-9-yl)piperidin-1-yl)isoxazol-5-yl)-3-methylbutanoyl)-4-hydroxy-N—((R)-1-(4-(4-methylthiazol-5-yl)phenyl)-2-morpholinoethyl)pyrrolidine-2-carboxamide], the DC50 at SMARCA2 [3] (HT1080 CRISPR knock-in cells) and on SMARCA4 [4] (HT1080 CRISPR knock-in cells) was < 100 nM throughout. Moreover, the Dmax on SMARCA2 [3] was > 90%; at SMARCA4 [4], 70 to 90%.
As to `Cc1ncoc1-c1ccc([C@H](C)NC(=O)[C@@H]2C[C@@H](O)CN2C(=O)[C@@H](n2cc([C@H]3CC[C@H](CN4CCN(c5ccc6c(c5)-n5c(nc(=O)c7c(Cl)cccc75)C6(C)C)CC4)CC3)nn2)C(C)(C)C)cc1` [Compound B126, (2S,4R)-1-((S)-2-(4-((1r,4S)-4-((4-(4-chloro-7,7-dimethyl-5-oxo-5,7-dihydroindolo[1,2-a]quinazolin-10-yl)piperazin-1-yl)methyl)cyclohexyl)-1H-1,2,3-triazol-1-yl)-3,3-dimethylbutanoyl)-4-hydroxy-N-((S)-1-(4-(4-methyloxazol-5-yl)phenyl)ethyl)pyrrolidine-2-carboxamide], the DC50 on SMARCA2 [3] (HT1080 CRISPR knock-in cells) and on SMARCA4 [4] (HT1080 CRISPR knock-in cells) was < 100 nM each time. Further, the Dmax on SMARCA2 [3] is > 90%; at SMARCA4 [4] it was 50 to 69%.
Take `Cc1cc(C(C(=O)N2C[C@H](O)C[C@H]2C(=O)N[C@@H](CCN2CCC(c3cccc4c3C(C)(C)c3nc(=O)c5c(Cl)cccc5n3-4)CC2)c2ccc(-c3scnc3C)cc2)C(C)C)on1` (stereo partly drawn) [Compound B166, (2S,4R)-N-((S)-3-(4-(4-chloro-7,7-dimethyl-5-oxo-5,7-dihydroindolo[1,2-a]quinazolin-8-yl)piperidin-1-yl)-1-(4-(4-methylthiazol-5-yl)phenyl)propyl)-4-hydroxy-1-(3-methyl-2-(3-methylisoxazol-5-yl)butanoyl)pyrrolidine-2-carboxamide]: on SMARCA2 [3] (HT1080 CRISPR knock-in cells), the “SMARC A2 HT1080 HiBit Dmax (%)” value is “B (B (70-90% degradation))” and the DC50 was in the range of 100 to 500 nM. On SMARCA4 [4] (HT1080 CRISPR knock-in cells), the “SMARC A4 HT1080 HiBit Dmax(%)” value is reported as “B (B (70-90% degradation))” and the DC50 was 100 to 500 nM.
In the case of `Cc1ncsc1-c1ccc([C@H](C)NC(=O)[C@@H]2C[C@@H](O)CN2C(=O)[C@H](C(C)C)n2cc(C3CCN(CCN4CCC(c5ccc6c(c5)-n5c(nc(=O)c7c(Cl)cccc75)C6(C)C)CC4)CC3)nn2)cc1` [Compound B67, (2S,4R)-1-((S)-2-(4-(1-(2-(4-(4-chloro-7,7-dimethyl-5-oxo-5,7-dihydroindolo[1,2-a]quinazolin-10-yl)piperidin-1-yl)ethyl)piperidin-4-yl)-1H-1,2,3-triazol-1-yl)-3-methylbutanoyl)-4-hydroxy-N-((S)-1-(4-(4-methylthiazol-5-yl)phenyl)ethyl)pyrrolidine-2-carboxamide], the DC50 at SMARCA2 [3] (HT1080 CRISPR knock-in cells) and at SMARCA4 [4] (HT1080 CRISPR knock-in cells) was < 100 nM throughout. Also, the results for the Dmax at SMARCA2 [3] and on SMARCA4 [4] were > 90% and 70 to 90%, respectively.
Turning to `Cc1cc(C(C(=O)N2C[C@H](O)C[C@H]2C(=O)N[C@@H](CN2CCC(N3CCC(c4cccc5c4C(C)(C)c4nc(=O)c6c(Cl)cccc6n4-5)CC3)CC2)c2ccc(-c3scnc3C)cc2)C(C)C)on1` (stereo partly drawn) [Compound B155, (2S,4R)-N-((R)-2-(4-(4-chloro-7,7-dimethyl-5-oxo-5,7-dihydroindolo[1,2-a]quinazolin-8-yl)-[1,4'-bipiperidin]-1'-yl)-1-(4-(4-methylthiazol-5-yl)phenyl)ethyl)-4-hydroxy-1-(3-methyl-2-(3-methylisoxazol-5-yl)butanoyl)pyrrolidine-2-carboxamide], the DC50 on SMARCA2 [3] (HT1080 CRISPR knock-in cells) and at SMARCA4 [4] (HT1080 CRISPR knock-in cells) was < 100 nM throughout. Also, the figures for the Dmax at SMARCA2 [3] and at SMARCA4 [4] were > 90% and 70 to 90%, respectively.
In the case of `Cc1ncsc1-c1ccc([C@H](C)NC(=O)[C@@H]2C[C@@H](O)CN2C(=O)[C@@H](n2cc(C34CC(C(=O)N5CCC(c6ccc7c(c6)-n6c(nc(=O)c8c(Cl)cccc86)C76CCCCC6)CC5)(C3)C4)nn2)C(C)(C)C)cc1` [Compound B169], the DC50 at SMARCA2 [3] (HT1080 CRISPR knock-in cells) and at SMARCA4 [4] (HT1080 CRISPR knock-in cells) was < 100 nM throughout. Also, the Dmax on SMARCA2 [3] lay within 70 to 90%; on SMARCA4 [4] it was 50 to 69%.
